ChEMBL document CHEMBL5316370, “Laeviganoids A-T, ent-Clerodane-Type Diterpenoids from Croton laevigatus” (2023)
The source made the active and inactive calls. The calls are words filed in the database; no cut-off is given here.

Columns and labels:
RAW264.7 [1] = test: Anti-inflammatory activity against IL-4/IL-13 stimulated mouse RAW264.7 cells assessed as inhibition of IL-10 secretion at 20 uM incubated for 48 hrs by ELISA method; type: functional, cell-based
RAW264.7 [2] = test: Anti-inflammatory activity against IL-4/IL-13 stimulated mouse RAW264.7 cells assessed as upregulation of TNFalpha secretion at 20 uM incubated for 48 hrs by ELISA method; type: functional, cell-based
RAW264.7 [3] = test: Anti-inflammatory activity against IL-4/IL-13 stimulated mouse RAW264.7 cells assessed as upregulation of TNFalpha secretion at 5 to 20 uM incubated for 48 hrs by ELISA method relative to control; type: functional; details: dose 5-20 µM
RAW264.7 [4] = test: Anti-inflammatory activity against IL-4/IL-13 stimulated mouse RAW264.7 cells assessed as inhibition of IL-10 secretion at 5 to 20 uM incubated for 48 hrs by ELISA method relative to control; type: functional; details: dose 5-20 µM

SMILES	inhibition (RAW264.7 [1])	Activity (RAW264.7 [2])	Activity (RAW264.7 [3]) [%]	inhibition (INH) (RAW264.7 [4]) [%]
C[C@]1(C[C@H](O)c2ccoc2)[C@H](CO)CC[C@]2(C)[C@@H]1CC[C@@H](O)[C@]2(C)O	Active	Active	–	–
CC(=O)O[C@@H]1[C@@H](c2ccoc2)OC(=O)[C@@H]2CC[C@@]3(C)C(C)C(=O)CC[C@@H]3[C@@]12C (stereo partly drawn)	Active	–	–	–
C=C1[C@H](O)CC[C@@H]2[C@@](C)(C[C@H](O)c3ccoc3)[C@H](C)CC[C@@]12C	Active	–	–	–
C[C@]12[C@H](OC(=O)c3ccccc3)[C@@H](c3ccoc3)OC(=O)[C@@H]1CC[C@]1(C)[C@@H]2CC[C@@H](O)[C@]1(C)O	Active	–	–	–
C[C@]12C[C@@H](c3ccoc3)OC(=O)[C@@H]1CC[C@]1(C)[C@@H]2CCC(=O)[C@]1(C)O	Active	–	–	–
CC1=CC(=O)O[C@@H]1C[C@@]1(C)[C@H](C)CC[C@@]2(C)C(C)=CC(=O)C[C@H]12	Active	–	–	–
COC(=O)[C@@H]1CC[C@]2(C)[C@H](CC[C@@H](O)[C@]2(C)O)[C@@]1(C)CC(=O)c1ccoc1	Active	Active	–	–
CC1=CCC[C@@H]2[C@@]3(C)C[C@@H](c4ccoc4)OC(=O)[C@@H]3CC[C@@]12C	Active	–	–	–
C[C@]1(CCc2ccoc2)[C@H](CO)CC[C@]2(C)[C@@H]1CC[C@@H](O)[C@]2(C)O	Active	–	–	–
C[C@@H]1CC[C@]2(C)[C@H](CC[C@@H](O)[C@]2(C)O)[C@@]1(C)CC(=O)c1ccoc1	Active	–	–	–
C[C@@H]1CC[C@]2(C)[C@H](CC[C@@H](O)[C@]2(C)O)[C@@]1(C)CCc1ccoc1	Active	Active	–	–
C[C@@H]1CC[C@]2(C)[C@H](CCC(=O)[C@H]2C)[C@@]1(C)CC(=O)c1ccoc1	Active	–	–	–
CO[C@@]1(C)[C@H](O)CC[C@@H]2[C@@]3(C)[C@H](OC(=O)c4ccccc4)[C@@H](c4ccoc4)OC(=O)[C@@H]3CC[C@]21C	Active	Active	>40	>40
C[C@]12C[C@@H](c3ccoc3)OC(=O)[C@@H]1CC[C@]1(C)[C@@H]2CC[C@H](Cl)[C@@]1(C)O	Active	–	–	–
C[C@@H]1CC[C@]2(C)[C@H](CCC(=O)[C@H]2C)[C@@]1(C)CCc1ccoc1	Active	Active	–	–
CC1=CC(=O)O[C@@H]1C[C@@]1(C)[C@H](C)CC[C@@]2(C)C(C)=CCC[C@H]12	Active	–	–	–
C=C1[C@H](O)CC[C@@H]2[C@@](C)(CC(=O)c3ccoc3)[C@H](C)CC[C@@]12C	Active	–	–	–
CCO[C@@]1(C)[C@H](O)CC[C@@H]2[C@@](C)(CC(=O)c3ccoc3)[C@H](C)CC[C@]21C	Active	Active	>40	>40
C[C@@H]1C(=O)CC[C@@H]2[C@@](C)(CCc3ccoc3)[C@H](CO)CC[C@]21C	Active	–	–	–
C[C@]12C(=CC[C@]3(C)[C@@H]1CC[C@@H](O)[C@]3(C)O)C(=O)O[C@H](c1ccoc1)[C@H]2OC(=O)c1ccccc1	Active	–	–	–
C/C(=C\CO)CC[C@@]1(C)[C@H](C)CC[C@@]2(C)C(CO)=CCC[C@H]12	Active	Active	>40	>40
CC1=CC(=O)O[C@H]1C[C@@]1(C)[C@H](C)CC[C@@]2(C)C(C)=CCC[C@H]12	Active	–	–	–
C[C@]12C[C@@H](c3ccoc3)OC(=O)[C@@H]1CC[C@]1(C)[C@@H]2CCC(=O)[C@@]1(C)O	Active	–	–	–
CC(=O)O[C@@H]1[C@@H](c2ccoc2)OC(=O)[C@@H]2CC[C@]3(C)[C@H](CC[C@@H](O)[C@]3(C)O)[C@@]12C	Active	–	–	–
COC(=O)[C@@H]1CC[C@]2(C)[C@H](CC[C@@H](O)[C@]2(C)OC)[C@@]1(C)CC(=O)c1ccoc1	Active	Active	–	–
CO[C@@]1(C)[C@H](O)CC[C@@H]2[C@@](C)(C[C@H](O)c3ccoc3)[C@H](C)CC[C@]21C	Active	Active	>40	>40
